These results are taken from patent publication US8101754B2, “Triazole compounds suitable for treating disorders that respond to modulation of the dopamine D3 receptor” (Abbott GmbH & Co. KG, priority 2004, dated 2012).

Like-named read-outs stand apart in the source and are kept apart here.

Data set [1] concerns the target T1, human dopamine D3 receptors (Homo sapiens, UniProt P35462).
T1 construct: expressed in transfected cells; membranes)
As to the kind of experiment: Dopamine D3 receptor binding ([125I]-iodosulpride displacement). The method, then:
The substance to be tested was either dissolved in methanol/Chremophor® (BASF-AG) or in dimethyl sulfoxide and then diluted with water to the desired concentration.
Each assay mixture was run in triplicate.
The incubation buffer contained 50 mM tris, 120 mM NaCl, 5 mM KCl, 2 mM CaCl2, 2 mM MgCl2 and 0.1% bovine serum albumin, 10 μM quinolone and 0.1% ascorbic acid (prepared fresh daily). The buffer was adjusted to pH 7.4 with HCl.
Measurement and Analysis:
After having been incubated at 25° C. for 60 minutes, the assay mixtures were filtered through a Wathman GF/B glass fiber filter under vacuum using a cell collecting device. The filters were transferred to scintillation viols using a filter transfer system. After 4 ml of Ultima Gold® (Packard) have been added, the samples were shaken for one hour and the radioactivity was then counted in a Beta-Counter (Packard, Tricarb 2000 or 2200CA). The cpm values were converted into dpm using a standard quench series and the program belonging to the instrument.
The inhibition curves were analyzed by means of iterative nonlinear regression analysis using the Statistical Analysis System (SAS) which is similar to the “LIGAND” program described by Munson and Rodbard.

In data set [2] the target is T2, human dopamine D2L receptors (long isoform) (Homo sapiens, UniProt P14416).
T2 construct: expressed in transfected cells; membranes)
As to the kind of experiment: Dopamine D2L receptor binding ([125I] iodospiperone), basis of selectivity Ki(D2)/Ki(D3). The following applies: for D2/D3: Table 7, compounds of formula IIa; for Selectivity [Ki(D2)/Ki(D3)]: D2L vs D3. The method, then:
The substance to be tested was either dissolved in methanol/Chremophor® (BASF-AG) or in dimethyl sulfoxide and then diluted with water to the desired concentration. […] Each assay mixture was run in triplicate. The incubation buffer contained 50 mM tris, 120 mM NaCl, 5 mM KCl, 2 mM CaCl2, 2 mM MgCl2 and 0.1% bovine serum albumin. The buffer was adjusted to pH 7.4 with HCl. Measurement and Analysis: After having been incubated at 25° C. for 60 minutes, the assay mixtures were filtered through a Wathman GF/B glass fiber filter under vacuum using a cell collecting device. The filters were transferred to scintillation viols using a filter transfer system. After 4 ml of Ultima Gold® (Packard) have been added, the samples were shaken for one hour and the radioactivity was then counted in a Beta-Counter (Packard, Tricarb 2000 or 2200CA). The cpm values were converted into dpm using a standard quench series and the program belonging to the instrument. The inhibition curves were analyzed by means of iterative nonlinear regression analysis using the Statistical Analysis System (SAS) which is similar to the “LIGAND” program described by Munson and Rodbard.

Data set [3] can be described thus: Concentration of compounds in plasma and brain following oral dosing. Format: in vivo, Sprague-Dawley rats. To be noted: Table 7; male rats, 10 mg/kg orally by gavage. The procedure: 2. Determination of the Concentration of Compounds in Plasma and Brain Following Dosing of Compounds in Animals
Male Sprague-Dawley rats were used in this study (2 to 4 per experiment). The animals were fasted overnight prior to dosing and throughout the duration of the study but were permitted water ad libitum.
Each rat received a 10 mg/kg (5 mL/kg) dose orally by gavage. At 0.5, 3 and 8 hours after drug administration, three animals were put under deep anesthesia using isoflurane and euthanized by bleeding (cardiac puncture) under deep isoflurane anesthesia. EDTA blood samples and brain tissue will be collected from each rat. Upon collection, the samples were promptly placed in an ice bath, and within 2 hours after sample collection, the blood was centrifuged at about 4° C. The resulting brain and plasma samples were placed in clean glass tubes and stored in a freezer until analysis.
The plasma samples were assayed for parent compound using appropriate liquid chromatography—mass spectrometry procedures. The results for compounds I are given in tables 2, and illustrate the high brain concentrations attainable with the compounds of the invention.

[4] abbreviates: Table 7, compounds of formula IIa, read-out: D3.
[5] abbreviates: compounds II, read-out: Ki D3 values.
[6] abbreviates: Table 6, membranes of HEK-293 cells, read-out: ki D3.
[7] abbreviates: Table 5, membranes of HEK-293 cells, read-out: Ki D3.

T2 sequence (P14416 whole entry, canonical isoform): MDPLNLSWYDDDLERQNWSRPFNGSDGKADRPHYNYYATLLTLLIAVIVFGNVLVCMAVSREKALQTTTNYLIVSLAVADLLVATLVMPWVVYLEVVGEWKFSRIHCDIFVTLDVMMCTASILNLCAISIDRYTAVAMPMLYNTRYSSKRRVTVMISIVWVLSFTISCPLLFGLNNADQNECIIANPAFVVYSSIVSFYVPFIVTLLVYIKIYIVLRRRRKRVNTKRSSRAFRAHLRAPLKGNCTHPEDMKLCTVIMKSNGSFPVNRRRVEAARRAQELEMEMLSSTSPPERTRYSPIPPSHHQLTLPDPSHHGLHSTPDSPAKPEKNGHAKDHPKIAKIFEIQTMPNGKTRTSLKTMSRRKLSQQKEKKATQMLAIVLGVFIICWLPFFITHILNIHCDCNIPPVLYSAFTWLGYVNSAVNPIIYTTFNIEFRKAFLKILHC
T1 sequence (P35462 whole entry): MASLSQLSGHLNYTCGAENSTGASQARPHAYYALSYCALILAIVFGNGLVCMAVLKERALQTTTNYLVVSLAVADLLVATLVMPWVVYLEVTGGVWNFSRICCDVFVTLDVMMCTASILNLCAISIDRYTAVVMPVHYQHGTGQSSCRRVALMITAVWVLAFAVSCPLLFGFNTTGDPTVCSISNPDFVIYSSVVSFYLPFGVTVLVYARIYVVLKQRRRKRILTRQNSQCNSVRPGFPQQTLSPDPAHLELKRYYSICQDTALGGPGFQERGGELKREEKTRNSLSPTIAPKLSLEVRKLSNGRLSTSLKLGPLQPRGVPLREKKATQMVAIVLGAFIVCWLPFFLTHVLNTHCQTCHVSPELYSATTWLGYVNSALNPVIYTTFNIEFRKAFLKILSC

As to `COCc1nnc(SCCCN2CCN(c3cc(C(F)F)nc(C(C)(C)C)n3)CC2)n1C.Cl` [c.4, 2-tert-Butyl-4-{4-[3-(4-methyl-5-methoxymethyl-4H-[1,2,4]triazol-3-ylsulfanyl)-propyl]-piperazin-1-yl}-6-difluoromethyl-pyrimidine hydrochloride], the figures for the Ki in data set [1] (setting [4]) and in data set [1] (setting [5]) were 1.5 nM and less than 5 nM, respectively. In data set [2], this compound gave a D2/D3 of 96. For the same compound, the Brain level in data set [3] is reported as 290 ng/g.

Turning to `CCc1nnc(SCCCN2CCN(c3cc(C(F)(F)F)nc(C(C)(C)C)n3)CC2)n1C.Cl` [c.15, 2-tert-Butyl-4-{4-[3-(4-methyl-5-ethyl-4H-[1,2,4]triazol-3-ylsulfanyl)-propyl]-piperazin-1-yl}-6-trifluoromethyl-pyrimidine hydrochloride], the Ki was 2 nM in data set [1] (setting [4]) and less than 5 nM in data set [1] (setting [5]). Also, the D2/D3 in data set [2] turned out to be 364. In data set [3], the Brain level worked out at 1410 ng/g.

In the case of `Cl.Cn1cnc([S+]([O-])CCCN2CCN(c3cc(C(C)(C)C)nc(C(C)(C)C)n3)CC2)n1` (stereo not shown) [Example 30, 2,6-di-tert-Butyl-4-{4-[3-(1-methyl-1H-[1,2,4]triazole-3-sulfinyl)-propyl]-piperazin-1-yl}-pyrimidine hydrochloride], the Ki in data set [1] (setting [6]) stood at 3.5 nM. Also, the “Selectivity [Ki(D2)/Ki(D3)]” value in data set [2] (Table 6) was 51.

Turning to `CCCc1cc(N2CCN(CCCS(=O)(=O)c3ncn(C)n3)CC2)nc(C(C)(C)C)n1` [Example 29, 2-tert-Butyl-4-{4-[3-(1-methyl-1H-[1,2,4]triazole-3-sulfonyl)-propyl]-piperazin-1-yl}-6-propyl-pyrimidine], the Ki in data set [1] (setting [6]) was 20.3 nM. The “Selectivity [Ki(D2)/Ki(D3)]” value in data set [2] (Table 6) is recorded as 59.

With `Cl.Cn1c(SCCCN2CCN(c3cc(C(F)F)nc(C(C)(C)C)n3)CC2)nnc1C(C)(C)C` [c.7, 2-tert-Butyl-4-{4-[3-(4-methyl-5-tert-butyl-4H-[1,2,4]triazol-3-ylsulfanyl)-propyl]-piperazin-1-yl}-6-difluoromethyl-pyrimidine hydrochloride], the Ki in data set [1] (setting [4]) is 1.2 nM; in data set [1] (setting [5]) it was less than 5 nM. The same compound yielded a D2/D3 in data set [2] of 115.

On to `CCCc1cc(N2CCN(CCC[S+]([O-])c3nnc(C)n3C)CC2)nc(C(C)(C)C)n1.Cl` (stereo not shown) [Example 8, 2-tert-Butyl-4-{4-[3-(4,5-dimethyl-4H-[1,2,4]triazole-3-sulfinyl)-propyl]-piperazin-1-yl}-6-propyl-pyrimidine hydrochloride], for which, in data set [1] (setting [7]), the Ki stood at 56 nM. Besides, in data set [2] (Table 5), the “Selectivity [Ki(D2)/Ki(D3)]” value is 33.

On to `CCCc1cc(N2CCN(CCCS(=O)(=O)c3nnc(C)n3C)CC2)nc(C(C)(C)C)n1` [Example 9, 2-Di-tert-butyl-6-{4-[3-(4,5-dimethyl-4H-[1,2,4]triazole-3-sulfonyl)-propyl]-piperazin-1-yl}-6-propyl-pyrimidine], for which the Ki in data set [1] (setting [7]) came out at 18.3 nM. In addition, the “Selectivity [Ki(D2)/Ki(D3)]” value in data set [2] (Table 5) stood at 45.

As for `CCCc1cc(N2CCN(CCC[S+]([O-])c3nnc(CC)n3C)CC2)nc(C(C)(C)C)n1.Cl` (stereo not shown) [Example 5, 2-tert-Butyl-4-{4-[3-(5-ethyl-4-methyl-4H-[1,2,4]triazole-3-sulfinyl)-propyl]-piperazin-1-yl}-6-propyl-pyrimidine hydrochloride], the Ki in data set [1] (setting [7]) is 38 nM. Further, in data set [2] (Table 5), the “Selectivity [Ki(D2)/Ki(D3)]” value was 37.

Consider `Cn1cnc(S(=O)(=O)CCCN2CCN(c3cc(C(C)(C)C)nc(C(C)(C)C)n3)CC2)n1` [Example 27, 2,6-di-tert-Butyl-4-{4-[3-(1-methyl-1H-[1,2,4]triazole-3-sulfonyl)-propyl]-piperazin-1-yl}-pyrimidine], for which the Ki in data set [1] (setting [6]) is 9.7 nM. Also, the “Selectivity [Ki(D2)/Ki(D3)]” value in data set [2] (Table 6) came out at 24.

Consider `Cl.Cn1cnc(S(=O)(=O)CCCN2CCN(c3cc(C(F)(F)F)nc(C(C)(C)C)n3)CC2)n1` [Example 19, 2-tert-Butyl-4-{4-[3-(1-methyl-1H-[1,2,4]triazole-3-sulfonyl)-propyl]-piperazin-1-yl}-6-trifluoromethyl-pyrimidine hydrochloride], for which the Ki in data set [1] (setting [6]) is 32 nM. Further, the “Selectivity [Ki(D2)/Ki(D3)]” value in data set [2] (Table 6) is 17.

`Cn1cnnc1[S+]([O-])CCCN1CCN(c2cc(C3CCC3)nc(C(C)(C)C)n2)CC1` (stereo not shown) [Example 3, 2-tert-Butyl-4-cyclobutyl-6-{4-[3-(4-methyl-4H-[1,2,4]triazole-3-sulfinyl)-propyl]-piperazin-1-yl}-pyrimidine]: in data set [1] (setting [7]), the Ki turned out to be 12 nM. Further, the “Selectivity [Ki(D2)/Ki(D3)]” value in data set [2] (Table 5) was determined as 44.

As for `CCCc1cc(N2CCN(CCCS(=O)(=O)c3nncn3C)CC2)nc(C(C)(C)C)n1` [Example 26, 2-tert-Butyl-4-{4-[3-(4-methyl-1H-[1,2,4]triazole-3-sulfonyl)-propyl]-piperazin-1-yl}-6-propyl-pyrimidine], the Ki in data set [1] (setting [6]) worked out at 44.6 nM. Further, the “Selectivity [Ki(D2)/Ki(D3)]” value in data set [2] (Table 6) is recorded as 33.

As to `Cc1nnc(SCCCN2CCN(c3cc(C(F)(F)F)nc(C(C)(C)C)n3)CC2)n1C.Cl` [c.14, 2-tert-Butyl-4-{4-[3-(4-methyl-5-methyl-4H-[1,2,4]triazol-3-ylsulfanyl)-propyl]-piperazin-1-yl}-6-trifluoromethyl-pyrimidine hydrochloride], in data set [1] (setting [4]), the Ki amounted to 1.5 nM. Moreover, the D2/D3 in data set [2] came to 135.

For the compound `CCCc1cc(N2CCN(CCCS(=O)(=O)c3nnc(CC)n3C)CC2)nc(C(C)(C)C)n1` [Example 12, 2-tert-Butyl-4-{4-[3-(5-ethyl-4-methyl-4H-[1,2,4]triazole-3-sulfonyl)-propyl]-piperazin-1-yl}-6-propyl-pyrimidine], in data set [1] (setting [7]), the Ki is 12.8 nM. Also, in data set [2] (Table 5), the “Selectivity [Ki(D2)/Ki(D3)]” value is given as 55.

As for `Cn1cnnc1[S+]([O-])CCCN1CCN(c2cc(C(C)(C)C)nc(C(C)(C)C)n2)CC1` (stereo not shown) [Example 18, 2,4-Di-tert-butyl-6-{4-[3-(4-methyl-4H-[1,2,4]triazole-3-sulfinyl)-propyl]-piperazin-1-yl}-pyrimidine], the Ki in data set [1] (setting [6]) stood at 25 nM. The “Selectivity [Ki(D2)/Ki(D3)]” value in data set [2] (Table 6) is reported as 17.

In the case of `Cn1cnnc1S(=O)(=O)CCCN1CCN(c2cc(C3CCC3)nc(C(C)(C)C)n2)CC1` [Example 2, 2-tert-Butyl-4-cyclobutyl-6-{4-[3-(4-methyl-4H-[1,2,4]triazole-3-sulfonyl)-propyl]-piperazin-1-yl}-pyrimidine], the Ki in data set [1] (setting [7]) stood at 52 nM. Moreover, the “Selectivity [Ki(D2)/Ki(D3)]” value in data set [2] (Table 5) came out at 14.

With `COCc1nnc(SCCCN2CCN(c3cc(C(F)(F)F)nc(C(C)(C)C)n3)CC2)n1C.Cl` [c.16, 2-tert-Butyl-4-{4-[3-(4-methyl-5-methoxymethyl-4H-[1,2,4]triazol-3-ylsulfanyl)-propyl]-piperazin-1-yl}-6-trifluoromethyl-pyrimidine hydrochloride], the Ki in data set [1] (setting [4]) is 0.65 nM; in data set [1] (setting [5]), less than 5 nM. The D2/D3 in data set [2] amounted to 237.

Regarding `CC(C)(C)c1nc(N2CCN(CCCS(=O)(=O)c3nc[nH]n3)CC2)cc(C2(C)CC2)n1` [Example 31, 2-tert-butyl-6-{4-[3-(1H-[1,2,4]triazole-3-sulfonyl)-propyl]-piperazin-1-yl}-6-(1-methyl)cyclopropyl-pyrimidine], the Ki in data set [1] (setting [6]) came out at 22.6 nM. In data set [2] (Table 6), the “Selectivity [Ki(D2)/Ki(D3)]” value stood at 37.

Take `CC(C)(C)c1cc(N2CCN(CCCS(=O)(=O)c3nc[nH]n3)CC2)nc(C(C)(C)C)n1` [Example 22, 2,4-Di-tert-butyl-6-{4-[3-(1H-[1,2,4]triazole-3-sulfonyl)-propyl]-piperazin-1-yl}-pyrimidine]: in data set [1] (setting [6]), the Ki stood at 47.4 nM. The “Selectivity [Ki(D2)/Ki(D3)]” value in data set [2] (Table 6) was determined as 19.

As for `Cn1cnnc1S(=O)(=O)CCCN1CCN(c2cc(C3CCCC3)nc(C(C)(C)C)n2)CC1` [Example 24, 2-tert-Butyl-4-{4-[3-(4-methyl-1H-[1,2,4]triazole-3-sulfonyl)-propyl]-piperazin-1-yl}-6-cyclopentyl-pyrimidine], the Ki in data set [1] (setting [6]) was found to be 7.5 nM. In addition, the “Selectivity [Ki(D2)/Ki(D3)]” value in data set [2] (Table 6) came to 20.
